Experimental data published in patent publication US8134015B2, “Compound inhibiting in vivo phosphorous transport and medicine containing the same” (Kyowa Hakko Kirin Co., Ltd., priority 2003, dated 2012).

Target: T1, rat NaPi-2b (Rattus norvegicus, UniProt Q9JJ09)
T1 construct: expressed in transfected cells; host or cells: Xenopus oocytes injected with cRNA
T1 sequence (Q9JJ09 1-695): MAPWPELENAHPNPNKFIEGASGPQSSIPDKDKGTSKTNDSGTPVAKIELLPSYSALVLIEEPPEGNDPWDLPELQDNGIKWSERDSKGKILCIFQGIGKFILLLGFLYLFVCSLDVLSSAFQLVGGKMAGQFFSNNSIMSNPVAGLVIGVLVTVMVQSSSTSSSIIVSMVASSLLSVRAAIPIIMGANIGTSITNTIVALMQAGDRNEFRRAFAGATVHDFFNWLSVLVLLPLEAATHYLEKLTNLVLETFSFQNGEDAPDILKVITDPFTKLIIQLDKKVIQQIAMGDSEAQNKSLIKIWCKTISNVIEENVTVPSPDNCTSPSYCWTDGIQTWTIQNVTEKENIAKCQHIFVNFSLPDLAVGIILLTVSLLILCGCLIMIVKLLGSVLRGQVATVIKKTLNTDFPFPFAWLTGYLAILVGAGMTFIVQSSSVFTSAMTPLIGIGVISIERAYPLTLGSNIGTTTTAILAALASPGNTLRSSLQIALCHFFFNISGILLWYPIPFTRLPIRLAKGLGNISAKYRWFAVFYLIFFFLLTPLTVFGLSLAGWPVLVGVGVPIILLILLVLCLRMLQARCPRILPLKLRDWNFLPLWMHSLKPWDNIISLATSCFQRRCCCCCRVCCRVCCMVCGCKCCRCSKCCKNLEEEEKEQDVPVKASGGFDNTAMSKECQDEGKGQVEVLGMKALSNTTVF
Assay: Sodium-dependent phosphate uptake of Xenopus oocytes which expressed NaPi-2b (32P)
Assay type: cell-based
Details: for IC50: Xenopus oocytes expressing rat NaPi-2b, 32P radioactive phosphorus, read-out: IC50 (phosphate uptake inhibitory activity); for inhibition at 300 µM: phosphate uptake, oocytes expressing rat NaPi-2b, determined from inhibition curve
Procedure: Pharmacological Test Example 1
Experiment of Sodium-Dependent Phosphate Uptake of Xenopus oocytes which Expressed NaPi-2b
Degenerate primers were prepared from sequences of mouse NaPi-2b disclosed in Hilfiker H. et al., Pro Natl Acad Sci USA, 95 (24): 14564-14569, […] and sequences of human and rat NaPi-2a disclosed in Magagnin S. et al., Proc Natl Aca Sci USA, 90 (13): 5979-5983, 1993. RNA was extracted from the rat small intestine using ISOGEN; manufactured by NIPPON GENE CO., LTD (Japan). 400 bp gene fragments were obtained by PCR using, as a template, a cDNA library prepared with a cDNA synthesis kit (manufactured by STRATAGENE (US)). Thereafter, the above rat small intestine cDNA library was screened using the gene fragment as a probe, and the whole gene sequence of rat NaPi-2b was cloned. cRNA was synthesized from the cloned rat NaPi-2b cDNA with a cRNA synthesis kit (manufactured by Ambion (US)). The synthesized cRNA was injected into Xenopus oocytes (obtained from COPACETIC (Japan)) with a liquid microinjector (manufactured by Drummond (US)) and was cultured for 2 days to express rat NaPi-2b. Thereafter, for a group of derivatives, phosphate uptake inhibitory activity were measured using the Xenopus oocytes with ^32P radioactive phosphorus (manufactured by Daiichi Kagaku Inc. (Japan)). […] The inhibitory activity for 300 μM and 100 μM was determined from the same inhibition curve and expressed in percentage inhibition (%) in Table 5.

IC50 [µM]	inhibition at 300 µM [%]	SMILES
4.21	–	Cc1ccc(/C=N/NC(=O)c2cc(Cl)ccc2NC(=O)c2ccncc2)cc1C [Compound 193, N-[4-Chloro-2-(3,4-dimethyl-benzylidene-hydrazinocarbonyl)-phenyl]-isonicotinamide]
3.95	–	COc1ccc(C(=O)Nc2ccc(Br)cc2C(=O)N/N=C(\C)c2cccc(F)c2)cc1OC [Compound 214, N-{4-Bromo-2-[1-(3-fluoro-phenyl)-ethylidene-hydrazinocarbonyl]-phenyl}-3,4-dimethoxy-benzamide]
9.88	–	COc1ccc(C(=O)Nc2ccccc2C(=O)N/N=C/c2cccs2)cc1OC [Compound 23, 3,4-Dimethoxy-N-[2-(thiophen-2-ylmethylene-hydrazinocarbonyl)-phenyl]-benzamide]
7.7	–	COc1ccc(C(=O)Nc2ccc(Br)cc2C(=O)N/N=C/c2cccnc2)cc1OC [Compound 110, N-[4-Bromo-2-(pyridin-3-ylmethylene-hydrazinocarbonyl)-phenyl]-3,4-dimethoxy-benzamide]
9.65	–	O=C(Nc1ccc(Cl)cc1C(=O)N/N=C/c1ccc(O)cc1)c1cccc(CN2CCC(N3CCCCC3)CC2)c1 [Compound 377, 3-[1,4′]Bipiperidinyl-1′-ylmethyl-N-[4-chloro-2-(4-hydroxy-benzylidene-hydrazinocarbonyl)-phenyl]-benzamide]
< 3	–	CCN(CC)CCNCc1cccc(C(=O)Nc2scc(C)c2C(=O)N/N=C/c2ccc(Cl)c(C(F)(F)F)c2)c1 [Compound 585, N-[3-(4-Chloro-3-trifluoromethyl-benzylidene-hydrazinocarbonyl)-4-methyl-thiophen-2-yl]-3-[(2-diethylamino-ethylamino)-methyl]-benzamide]
9.05	–	CCN1CC(NCc2ccc(-c3nc4ccc(Br)cc4c(=O)n3/N=C/c3ccc(C)c(C)c3)cc2)CN1CC [Compound 749, 6-Bromo-2-{4-[(1,2-diethyl-pyrazolidin-4-ylamino)-methyl]-phenyl}-3-[(3,4-dimethyl-benzylidene)-amino]-3H-quinazolin-4-one]
–	41.1	Cc1csc(C(=O)N/N=C/c2cccc(F)c2)c1NC(=O)c1cccc(CN2CCC(O)CC2)c1 [Compound 542, N-[2-(3-Fluoro-benzylidene-hydrazinocarbonyl)-4-methyl-thiophen-3-yl]-3-(4-hydroxy-piperidin-1-ylmethyl)-benzamide]
2.89	–	CCN(CC)CCN(C)Cc1cccc(C(=O)Nc2ccc(N3CCCN(C)CC3)cc2C(=O)N/N=C/c2ccc(Cl)c(C(F)(F)F)c2)c1 [Compound 922, N-[2-(4-Chloro-3-trifluoromethyl-benzylidene-hydrazinocarbonyl)-4-(4-methyl-[1,4]diazepan-1-yl)-phenyl]-3-{[(2-diethylamino-ethyl)-methyl-amino]-methyl}-benzamide]
2.76	–	O=C(Nc1ccc(OCCCN2CCCCC2)cc1C(=O)N/N=C/c1ccc(Cl)c(C(F)(F)F)c1)c1cccc(CSCCO)c1 [Compound 1039, N-[2-(4-Chloro-3-trifluoromethyl-benzylidene-hydrazinocarbonyl)-4-(3-piperidin-1-yl-propoxy)-phenyl]-3-(2-hydroxy-ethylsulfanylmethyl)-benzamide]
–	77.3	COc1ccc(C(=O)Nc2ccccc2C(=O)N/N=C/c2ccccc2F)cc1OC [Compound 2, N-[2-(2-Fluoro-benzylidene-hydrazinocarbonyl)-phenyl]-3,4-dimethoxy-benzamide]
5.92	–	CCSCCNCc1ccc(C(=O)Nc2ccc(Br)cc2C(=O)N/N=C/c2ccc(C)c(C)c2)cc1 [Compound 764, N-[4-Bromo-2-(3,4-dimethyl-benzylidene-hydrazinocarbonyl)-phenyl]-4-[(2-ethylsulfanyl-ethylamino)-methyl]-benzamide]
6.76	–	O=C(Nc1ccc(N2CCC(O)CC2)cc1C(=O)N/N=C/c1ccc(Cl)c(C(F)(F)F)c1)c1cccc(CSCCO)c1 [Compound 1062, N-[2-(4-Chloro-3-trifluoromethyl-benzylidene-hydrazinocarbonyl)-4-(4-hydroxy-piperidin-1-yl)-phenyl]-3-(2-hydroxy-ethylsulfanylmethyl)-benzamide]
< 3	–	Cc1ccc(/C=N/NC(=O)c2cc(I)ccc2NC(=O)c2cccc(CN3CCC(N4CCCCC4)CC3)c2)cc1 [Compound 485, 3-[1,4′]Bipiperidinyl-1′-ylmethyl-N-[4-iodo-2-(4-methyl-benzylidene-hydrazinocarbonyl)-phenyl]-benzamide]
1.08	–	O=C(Nc1ccc(Br)cc1C(=O)N/N=C/c1cccc(Cl)c1)c1ccc(F)cc1 [Compound 107, N-[4-Bromo-2-(3-chloro-benzylidene-hydrazinocarbonyl)-phenyl]-4-fluoro-benzamide]
5.71	–	CCN(CC)CCN(C)Cc1cccc(C(=O)Nc2ccc(OCCOC)cc2C(=O)N/N=C/c2cccc(F)c2)c1 [Compound 1025, 3-{[(2-Diethylamino-ethyl)-methyl-amino]-methyl}-N-[2-(3-fluoro-benzylidene-hydrazinocarbonyl)-4-(2-methoxy-ethoxy)-phenyl]-benzamide]
21	–	O=C(Nc1ccc(Cl)cc1C(=O)N/N=C/c1cccc(O)c1)c1cccc(CN2CCC(N3CCCCC3)CC2)c1 [Compound 376, 3-[1,4′]Bipiperidinyl-1′-ylmethyl-N-[4-chloro-2-(3-hydroxy-benzylidene-hydrazinocarbonyl)-phenyl]-benzamide]
18.7	–	CCN(CC)CCN(C)Cc1cccc(C(=O)Nc2ccc(OCCOCCOC)cc2C(=O)N/N=C/c2cccc(F)c2)c1 [Compound 1033, 3-{[(2-Diethylamino-ethyl)-methyl-amino]-methyl}-N-{2-(3-fluoro-benzylidene-hydrazinocarbonyl)-4-[2-(2-methoxy-ethoxy)-ethoxy]-phenyl}-benzamide]
–	41.2	Cc1csc(C(=O)N/N=C/c2ccc(Cl)c(C(F)(F)F)c2)c1NC(=O)c1cccc(CN(CC(C)O)CC(C)O)c1 (centres unmarked) [Compound 707, 3-{[Bis-(2-hydroxy-propyl)-amino]-methyl}-N-[2-(4-chloro-3-trifluoromethyl-benzylidene-hydrazinocarbonyl)-4-methyl-thiophen-3-yl]-benzamide]
137	–	COc1ccc(/C=N/NC(=O)c2ccsc2NC(=O)c2cccc(CSCCCO)c2)cc1 [Compound 663, 3-(3-Hydroxy-propylsulfanylmethyl)-N-[3-(4-methoxy-benzylidene-hydrazinocarbonyl)-thiophen-2-yl]-benzamide]
24.7	–	COc1ccc(/C=N/NC(=O)c2cc(Cl)ccc2NC(=O)c2cccc(CN3CCC(N4CCCCC4)CC3)c2)cc1 [Compound 375, 3-[1,4′]Bipiperidinyl-1′-ylmethyl-N-[4-chloro-2-(4-methoxy-benzylidene-hydrazinocarbonyl)-phenyl]-benzamide]
2.2	–	COc1ccc(/C=N/NC(=O)c2c(NC(=O)c3cccc(CN(CC(C)O)CC(C)O)c3)sc(C)c2C)cc1 (centres unmarked) [Compound 848, 3-{[Bis-(2-hydroxy-propyl)-amino]-methyl}-N-[3-(4-methoxy-benzylidene-hydrazinocarbonyl)-4,5-dimethyl-thiophen-2-yl]-benzamide]

SMILES	IC50 [µM]	inhibition at 300 µM [%]
CCN(CC)CCN(C)Cc1cccc(C(=O)Nc2ccc(OCCCCF)cc2C(=O)N/N=C/c2cccc(F)c2)c1 [Compound 1057, 3-{[(2-Diethylamino-ethyl)-methyl-amino]-methyl}-N-[2-(3-fluoro-benzylidene-hydrazinocarbonyl)-4-(4-fluoro-butoxy)-phenyl]-benzamide]	1.26	–
